Test results from ChEMBL document CHEMBL4118151, “Highly potent activity of isopulegol-derived substituted octahydro-2H-chromen-4-ols against influenza A and B viruses” (Bioorg Med Chem Lett, 2018).

How the values were obtained:
[1] = Selectivity index, ratio of CC50 for MDCK cells to IC50 for amantadine/rimantadine-resistant Influenza B virus (B/Florida/4/06/Yamagata-like); format: toxicity; conditions: dog, read-out: Ratio CC50/IC50
Influenza B virus = experiment: Antiviral activity against amantadine/rimantadine-resistant Influenza B virus (B/Florida/4/06(Yamagata-like)) infected in MDCK cells assessed as inhibition of viral replication after 48 hrs by hemagglutination test; format: functional, organism-based, Influenza B virus (B/Florida/4/2006)
Influenza A virus [2] = experiment: Antiviral activity against amantadine/rimantadine-resistant Influenza A virus (A/Puerto Rico/8/34(H1N1)) infected in MDCK cells assessed as inhibition of viral replication after 48 hrs by hemagglutination test; format: functional, organism-based; conditions: A/Puerto Rico/8/1934(H1N1)
[3] = Selectivity index, ratio of CC50 for MDCK cells to IC50 for amantadine/rimantadine-resistant Influenza A virus (A/California/07/09(H1N1)); format: toxicity; conditions: dog, read-out: Ratio CC50/IC50
Influenza A virus [4] = experiment: Antiviral activity against amantadine/rimantadine-resistant Influenza A virus (A/California/07/09(H1N1)) infected in MDCK cells assessed as inhibition of viral replication after 48 hrs by hemagglutination test; format: functional, organism-based; conditions: A/California/07/2009(H1N1)
[5] = Selectivity index, ratio of CC50 for MDCK cells to IC50 for osaltamivir-resistant Influenza A virus (A/Vladivostok/02/09(H1N1)); format: toxicity; conditions: dog, read-out: Ratio CC50/IC50
Influenza A virus [6] = experiment: Antiviral activity against osaltamivir-resistant Influenza A virus (A/Vladivostok/02/09(H1N1)) infected in MDCK cells assessed as inhibition of viral replication after 48 hrs by hemagglutination test; format: functional, organism-based
[7] = Selectivity index, ratio of CC50 for MDCK cells to IC50 for amantadine/rimantadine-resistant Influenza A virus (A/Puerto Rico/8/34(H1N1)); format: toxicity; conditions: dog, read-out: Ratio CC50/IC50

Row | Compound | IC50 (Influenza A virus [2]) | selectivity ratio [7] | further results
1 | C[C@@H]1CC[C@@H]2[C@@H](C1)OC(C)(C)C[C@@]2(C)O | 7.5 µM | – | selectivity ratio [1]: 83; IC50 (Influenza B virus): 17 µM; selectivity ratio [3]: 1570; IC50 (Influenza A virus [4]): 0.9 µM; selectivity ratio [5]: 1; IC50 (Influenza A virus [6]): > 1420 µM
2 | CC(C)=O [ACETONE] | 7.5 µM | – | –
3 | C[C@@H]1CC[C@@H]2[C@@H](C1)OC(C)(C)C[C@]2(C)O | 70.8 µM | 12 | –
4 | C[C@@H]1CC[C@@H]2[C@H](C1)OC1(CCCCC1)C[C@@]2(C)O | 18.3 µM | 34 | –
5 | C[C@@H]1CC[C@@H]2[C@H](C1)OC1(CCCCCC1)C[C@@]2(C)O | 82.7 µM | 3 | –
6 | CC(N)C12CC3CC(CC(C3)C1)C2 (centres undefined) [RIMANTADINE] | 72 µM | 4 | –
7 | CCCC1(CCC)C[C@@](C)(O)[C@@H]2CC[C@@H](C)C[C@@H]2O1 | 45.5 µM | 3 | –
8 | C[C@@H]1CC[C@@H]2[C@H](C1)OC1(CCCC1)C[C@@]2(C)O | 8.4 µM | 96 | –
9 | C[C@@H]1CC[C@@H]2[C@H](C1)OC1(CCCCCCC1)C[C@@]2(C)O | > 118 µM | – | –
10 | C[C@@H]1CC[C@@H]2[C@@H](C1)O[C@@H](C1CCCCC1)C[C@@]2(C)O | 12.4 µM | 2 | –
11 | NC(=O)c1ncn([C@@H]2O[C@H](CO)[C@@H](O)[C@H]2O)n1 [RIBAVIRIN] | 44 µM | – | –
12 | C[C@@H]1CC[C@@H]2[C@H](C1)OC(C)(C)CC2(C)O (some centres undefined) | 17 µM | 4 | –
13 | CCC[C@H]1C[C@@](C)(O)[C@@H]2CC[C@@H](C)C[C@H]2O1 | > 1330 µM | – | –
14 | CCC1(CC)C[C@@](C)(O)[C@@H]2CC[C@@H](C)C[C@@H]2O1 | 19.6 µM | 10 | –
